# Assay results taken from article PMC9057582, “HIF inhibitor 32-134D eradicates murine hepatocellular carcinoma in combination with anti-PD1 therapy” (The Journal of Clinical Investigation, 2022).
# System: Hep3B tumor xenograft
# Assay: Hep3B tumor xenograft growth in nude mice
# Type: in vivo, nude (nu/nu) mice
# Experimental: Hep3B cells were injected subcutaneously into nude (nu/nu) mice and when tumors reached a volume of 150 mm^3 (designated day 1), the mice were treated with vehicle or 32-134D by daily intraperitoneal injection. […] Treatment with 32-134D for 17 days had no effect on mouse appearance, behavior, or body weight (Supplemental Figure 4B). We treated additional mice with 32-134D at a dose of 40 mg/kg versus vehicle and confirmed inhibition of tumor growth without effects on body weight (Supplemental Figure 5, A–C).
# Figure 2 Effect of 32-134D on Hep3B tumor xenograft growth and vascularization. (A) Female nude mice received a subcutaneous injection of […] Hep3B cells. When tumors reached a volume of 150 mm^3 (designated treatment day 1), the mice were randomized to receive a daily intraperitoneal injection of 32-134D at a dose of 0 (blue), 20 (black), 40 (red), or 80 (green) mg/kg. Data are presented as mean tumor volume (± SEM; n = 4 each). **P < 0.01, ***P < 0.001 (ANOVA with Bonferroni’s post hoc test). (B) Gross pathology of tumors harvested from vehicle-treated (top panel) and 32-134D–treated (bottom panel) mice. (C) Nuclear extracts prepared from tumors were assayed by immunoblotting using antibodies against the indicated proteins. (D) Total RNA was isolated from tumor tissue and analyzed by RT-qPCR using primers specific for the indicated mRNAs and results (mean ± SEM, n = 4) were normalized to the mean value for tumors from vehicle-treated mice. (E) ELISA for the indicated proteins was performed using aliquots of tumor lysates (mean ± SEM; n = 3–4 tumors each). *P < 0.05 (Mann-Whitney test). (F) Formalin-fixed and paraffin-embedded tumor sections were analyzed by immunohistochemistry using an antibody against CD31 to identify vascular endothelial cells. Scale bar: 100 μm. The total CD31^+ vessel area per field was quantified using ImageJ (mean ± SEM; n = 4 tumors with 5 sections per tumor). *P < 0.05 (Student’s t test).
# Female nude mice (NCI Athymic NCr-nu/nu) and male C57L mice were purchased from Charles River and The Jackson Laboratory, respectively. Hep3B (8 × 10^6) and Hepa1-6 (1 × 10^7) cells were resuspended in PBS and Matrigel (1:1, vol/vol) and implanted subcutaneously in 6- to 8-week-old mice, and tumor volume was calculated as V = abc × 0.52. For Hep3B tumor studies, once tumors reached 100 to 150 mm^3, mice were randomized into groups to receive daily intraperitoneal injection of either 32-134D or vehicle only (20% PEG-400, 10% Cremophor EL, 10% ethanol in PBS). For Hepa1-6 tumors, mice were randomized to receive treatment once tumors became palpable (tumor eradication experiment) or reached a volume of 200 mm^3 (harvesting of tumors for flow cytometry and analysis of RNA and protein expression). Tumors were harvested 4 hours after the last treatment (see Supplemental Table 6 for reagent sources).
# Supplemental Figure 4. […]
# Female nude mice received a subcutaneous injection of 8 x 10^6 Hep3B cells. […] (A) Tumor volumes were determined every other day. […] (B) Body weights of tumor-bearing mice were measured every other data and are presented as mean + SEM (n = 3-4 per group). […]
# Supplemental Figure 5. […] (A-D) Tumor bearing mice were treated with daily intraperitoneal injection of vehicle (black) or 32-134D (red; 40 mg/kg) and individual (A) and mean (B) tumor volumes as well as body weight (C) were determined every other day and mean tumor weights (D) were determined on day 17 (mean + SEM, n =4). *P < 0.05 by ANOVA. […]
smiles,measurement,setting,value
Brc1ccc2c(-c3csc(-c4c[nH]c5c(Br)cccc45)n3)c[nH]c2c1 [Compound 32-134D],tumor xenograft growth,"20 mg/kg daily intraperitoneal, P < 0.01 vs vehicle",partial growth inhibition
same,tumor xenograft growth,"40 mg/kg daily intraperitoneal, P < 0.001 vs vehicle",maximal growth inhibition
same,tumor mass at harvest,"40 mg/kg, day 17, P < 0.05",significantly decreased
same,tumor xenograft growth,"80 mg/kg daily intraperitoneal, P < 0.001 vs vehicle",maximal growth inhibition
same,"mouse appearance, behavior, or body weight",treatment for 17 days,no effect
